# Patent US20220315554A1, “COMPOUNDS COMPRISING A […] LIGAND AND USE THEREOF” (priority 2019, published 2022)
# Numbered stars: 1 amine (or outer) side, 2 acyl side, 3 side chain; on linkers, the order of the positions; unused ones are H or OH. Bridge positions count the residues as written; N and C are the ends. Square brackets hold non-standard residues; d marks the D form. Peptide text beside a SMILES is read from it. * marks the point of attachment. ξ: configuration not given here. TBMB(SCH2CH2NH-DOTA) = O=C(O)CN1CCN(CC(=O)O)CCN(CC(=O)NCCSCc2cc(C[*:1])cc(C[*:2])c2)CCN(CC(=O)O)CC1; X24 = NCCNCC(CNCCN)C(=O)N[C@@H](CCC(=O)NC[C@H](O)[C@@H](O)[C@H](O)[C@H](O)CO)C(=O)NCCCOCCOCCOCCCN*; X9 = NCCNCC(CNCCN)C(=O)N[C@@H](CCC(=O)O)C(=O)NCCCOCCOCCOCCCN*; X10 = O=C([C@H](CCCc1cccc(C[*:3])c1)N[*:1])[*:2]; mXylylene = c1cc(C[*:1])cc(C[*:2])c1; PEG6 = NCCOCCOCCOCCOCCOCCOCCC(=O)O; Suc = O=C(CCC(=O)[*:2])[*:1]; X18 = NCCNCC(CNCCN)C(=O)*; Nle = CCCC[C@H](N)C(=O)O; Hexanoyl = CCCCCC(=O)*; ξM = CSCCC(N)C(=O)O
# Columns and labels:
# Human recombinant FAP [1] = target: T1, Human recombinant FAP (Homo sapiens, UniProt Q12884); experiment: FRET-based FAP protease activity assay; assay type: biochemical; design: purchased R&D systems 3715-SE; details: pIC50 Category (Activity), FRET substrate, 37° C.
# T1 sequence (Q12884 1-760): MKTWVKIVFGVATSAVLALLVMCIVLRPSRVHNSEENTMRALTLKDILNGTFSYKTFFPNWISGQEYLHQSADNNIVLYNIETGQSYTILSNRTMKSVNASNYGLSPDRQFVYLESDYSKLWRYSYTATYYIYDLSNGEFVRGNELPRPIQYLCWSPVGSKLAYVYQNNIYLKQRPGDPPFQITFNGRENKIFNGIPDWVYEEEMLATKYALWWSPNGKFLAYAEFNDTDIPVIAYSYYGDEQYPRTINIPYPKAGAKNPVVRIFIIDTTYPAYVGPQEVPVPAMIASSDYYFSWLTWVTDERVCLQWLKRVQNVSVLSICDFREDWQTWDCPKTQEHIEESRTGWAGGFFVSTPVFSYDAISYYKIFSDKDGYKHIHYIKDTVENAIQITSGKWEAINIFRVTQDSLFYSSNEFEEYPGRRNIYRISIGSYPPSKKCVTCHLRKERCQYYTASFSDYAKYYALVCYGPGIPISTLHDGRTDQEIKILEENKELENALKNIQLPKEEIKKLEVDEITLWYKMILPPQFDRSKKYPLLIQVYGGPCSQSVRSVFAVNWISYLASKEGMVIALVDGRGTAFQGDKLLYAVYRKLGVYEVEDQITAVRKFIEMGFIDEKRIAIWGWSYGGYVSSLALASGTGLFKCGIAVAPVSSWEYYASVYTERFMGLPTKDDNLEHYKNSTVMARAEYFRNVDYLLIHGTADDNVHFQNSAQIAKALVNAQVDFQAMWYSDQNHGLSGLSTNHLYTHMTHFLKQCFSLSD
# [2] = target: T2, FAP-expressing human WI-38 fibroblasts (Homo sapiens, UniProt Q12884); experiment: Competitive FACS binding assay; details: pIC50 Category (FACS), competition with 3 nM Cy5-labeled compound, 4° C., 1 hour
# T2 construct: FAP-expressing human WI-38 fibroblasts (ECACC) were cultured in EMEM; host or cells: WI-38 human fibroblasts
# T2 sequence (Q12884 1-760): T1 sequence (Q12884 1-760)
# Method: Cells were analyzed in an Attune NxT flow cytometer. […]
# [3] = Plasma stability assay, mouse plasma; assay type: in vitro ADME; details: 4 h incubation, 37° C., read-out: % intact compound remaining after incubation, Mouse plasma
# Human recombinant FAP [4] = target: T1, Human recombinant FAP; experiment: Surface plasmon resonance (Biacore) assay; assay type: binding
SMILES,IC50 (Human recombinant FAP [1]; recombinant human FAP) [nM],IC50 ([2]; WI-38 fibroblasts) [nM],"remaining at 4 h, 9.8 µM [3] [%]",IC50 (Human recombinant FAP [1]) [nM],IC50 [2] [nM],Kd (Human recombinant FAP [4]) [nM]
"CSCCC(N)C(=O)N[C@H]1CSCc2cccc(c2)CSC[C@@H](C(=O)N[C@@H](CC(=O)O)C(=O)N[C@@H](Cc2c[nH]cn2)C(=O)N[C@@H](Cc2ccccc2)C(=O)N[C@@H](CCCNC(=N)N)C(=O)N[C@@H](CC(=O)O)C(N)=O)NC(=O)[C@H](Cc2ccccc2)NC(=O)[C@H](CCC(=O)O)NC(=O)[C@H]([C@@H](C)O)NC(=O)[C@@H]2CCCN2C(=O)[C@@H]2CCCN2C1=O (stereo partly drawn) [3BP-2976, H-met-[Cys(3MeBn)-Pro-Pro-Thr-Glu-Phe-Cys]-Asp-His-Phe-Arg-Asp-NH2] (H-[ξM]CPPTEFCDHFRD-NH2; linker 2-8 via mXylylene)",< 10,< 10,93,,,
"CSCC[C@H](NC(C)=O)C(=O)N[C@H]1CSCc2cccc(c2)CSC[C@@H](C(=O)N[C@@H](CC(=O)O)C(=O)N[C@@H](Cc2c[nH]cn2)C(=O)N[C@@H](Cc2ccccc2)C(=O)N[C@@H](CCCNC(=N)N)C(=O)N[C@@H](CC(=O)O)C(N)=O)NC(=O)[C@H](Cc2ccccc2)NC(=O)[C@H](CCC(=O)O)NC(=O)[C@H]([C@@H](C)O)NC(=O)[C@H]2CCCN2C(=O)[C@@H]2CCCN2C1=O [3BP-3177, Ac-Met-[Cys(3MeBn)-Pro-pro-Thr-Glu-Phe-Cys]-Asp-His-Phe-Arg-Asp-NH2] (Ac-MCP[dP]TEFCDHFRD-NH2; linker 2-8 via mXylylene)",10 to 79.4,10 to 79.4,79,,,
"CSCC[C@H](NC(C)=O)C(=O)N[C@@H]1CSCc2cccc(c2)CSC[C@H](C(=O)N[C@@H](CC(=O)O)C(=O)N[C@@H](Cc2c[nH]cn2)C(=O)N[C@@H](Cc2ccccc2)C(=O)N[C@@H](CCCNC(=N)N)C(=O)N[C@@H](CC(=O)O)C(N)=O)NC(=O)[C@H](Cc2ccccc2)NC(=O)[C@H](CCC(=O)O)NC(=O)[C@H]([C@@H](C)O)NC(=O)[C@@H]2CCCN2C(=O)[C@@H]2CCCN2C1=O [3BP-3181, Ac-Metqcys(3MeBn)-Pro-Pro-Thr-Glu-Phe-cys]-Asp-His-Phe-Arg-Asp-NH2] (Ac-M[dC]PPTEF[dC]DHFRD-NH2; linker 2-8 via mXylylene)",,,100,,,
"CSCC[C@H](NC(C)=O)C(=O)N[C@H]1CSCc2cccc(c2)CSC[C@@H](C(=O)N[C@H](CC(=O)O)C(=O)N[C@@H](Cc2c[nH]cn2)C(=O)N[C@@H](Cc2ccccc2)C(=O)N[C@@H](CCCNC(=N)N)C(=O)N[C@@H](CC(=O)O)C(N)=O)NC(=O)[C@H](Cc2ccccc2)NC(=O)[C@H](CCC(=O)O)NC(=O)[C@H]([C@@H](C)O)NC(=O)[C@@H]2CCCN2C(=O)[C@@H]2CCCN2C1=O [3BP-3183, Ac-Met-[Cys(3MeBn)-Pro-Pro-Thr-Glu-Phe-Cys]-asp-His-Phe-Arg-Asp-NH2] (Ac-MCPPTEFC[dD]HFRD-NH2; linker 2-8 via mXylylene)",10 to 79.4,10 to 79.4,98,,,
"CSCC[C@H](NC(C)=O)C(=O)N[C@H]1CSCc2cccc(c2)CSC[C@@H](C(=O)N[C@@H](CC(=O)O)C(=O)N[C@@H](Cc2c[nH]cn2)C(=O)N(C)[C@@H](Cc2ccccc2)C(=O)N[C@@H](CCCNC(=N)N)C(=O)N[C@@H](CC(=O)O)C(N)=O)NC(=O)[C@H](Cc2ccccc2)NC(=O)[C@H](CCC(=O)O)NC(=O)[C@H]2NC(=O)[C@@H]3C(CCN3C(=O)[C@@H]3CCCN3C1=O)[C@H]2O [3BP-3188, Ac-Met-[Cys(3MeBn)-Pro-Pro-Thr-Glu-Phe-Cys]-Asp-His-Nmf-Arg-Asp-NH2]",< 10,< 10,97,,,
"CSCC[C@H](NC(C)=O)C(=O)N[C@H]1CSCc2cccc(c2)CSC[C@@H](C(=O)N[C@@H](CC(=O)O)C(=O)N[C@@H](Cc2c[nH]cn2)C(=O)N2Cc3ccccc3C[C@H]2C(=O)N[C@@H](CCCNC(=N)N)C(=O)N[C@@H](CC(=O)O)C(N)=O)NC(=O)[C@H](Cc2ccccc2)NC(=O)[C@H](CCC(=O)O)NC(=O)[C@H]2NC(=O)[C@@H]3C(CCN3C(=O)[C@@H]3CCCN3C1=O)[C@H]2O [3BP-3189, Ac-Met-[Cys(3MeBn)-Pro-Pro-Thr-Glu-Phe-Cys]-Asp-His-Tic-Arg-Asp-NH2]",< 10,< 10,100,,,
"CCCCCC(=O)N[C@H]1CSCc2cc(CSCCNC(=O)CC[C@@H]3C(=O)[O][Ga]([O]C(=O)CN(C)CC)[O]C(=O)CN(C)CCN3CC)cc(c2)CSC[C@@H](C(=O)O)NC(=O)[C@H](Cc2ccccc2)NC(=O)[C@H](CCC(N)=O)NC(=O)[C@H]([C@@H](C)O)NC(=O)[C@@H]2CCCN2C(=O)[C@@H]2CCCN2C1=O [3BP-4184, Gallium-Complex of Hex-[Cys(tMeBn(NODAGA-AET))-Pro-Pro-Thr-Gln-Phe-Cys]-OH]",,,,< 10,< 10,< 10
"CCCC[C@H](NC(=O)CCC(=O)NCCCOCCOCCOCCCNC(=O)C(CNCCN)CNCCN)C(=O)N[C@H]1CSCc2cccc(c2)CSC[C@@H](C(=O)O)NC(=O)[C@H](Cc2ccccc2)NC(=O)[C@H](CCC(N)=O)NC(=O)[C@H]([C@@H](C)O)NC(=O)[C@@H]2CCCN2C(=O)[C@@H]2CCCN2C1=O [3BP-4219, N4Ac-Ttds-Nle-[Cys-(3MeBn)-Pro-Pro-Thr-Gln-Phe-Cys]-OH]",,,,< 10,10 to 79.4,< 10
"CCCC[C@H](NC(=O)CCOCCOCCOCCOCCOCCOCCNC(=O)C(CNCCN)CNCCN)C(=O)N[C@H]1CSCc2cccc(c2)CSC[C@@H](C(=O)O)NC(=O)[C@H](Cc2ccccc2)NC(=O)[C@H](CCC(=O)O)NC(=O)[C@H]([C@@H](C)O)NC(=O)[C@@H]2CCCN2C(=O)[C@@H]2CCCN2C1=O [3BP-4221, N4Ac-PEG6-Nle-[Cys-(3MeBn)-Pro-Pro-Thr-Glu-Phe-Cys]-OH] ({X18-PEG6}-[Nle]CPPTEFC-OH; linker 2-8 via mXylylene)",,,,10 to 79.4,10 to 79.4,< 10
"CCCC[C@H](NC(=O)CCC(=O)NCCCOCCOCCOCCCNC(=O)[C@H](CCC(=O)O)NC(=O)C(CNCCN)CNCCN)C(=O)N[C@H]1CSCc2cccc(c2)CCC[C@@H](C(=O)O)NC(=O)[C@H](Cc2ccccc2)NC(=O)[C@H](CCC(=O)O)NC(=O)[C@H]([C@@H](C)O)NC(=O)[C@@H]2CCCN2C(=O)[C@@H]2CCCN2C1=O [3BP-4222, N4Ac-Glu-Ttds-Nle-[Cys-(3MeBn)-Pro-Pro-Thr-Glu-Phe-Cys]-OH] ({X9-Suc}-[Nle]CPPTEF[X10]-OH; thioether 2-8)",,,,10 to 79.4,10 to 79.4,< 10
"CCCC[C@H](NC(=O)CCC(=O)NCCCOCCOCCOCCCNC(=O)[C@H](CCC(=O)NC[C@H](O)[C@@H](O)[C@H](O)[C@H](O)CO)NC(=O)C(CNCCN)CNCCN)C(=O)N[C@H]1CSCc2cccc(c2)CSC[C@@H](C(=O)O)NC(=O)[C@H](Cc2ccccc2)NC(=O)[C@H](CCC(=O)O)NC(=O)[C@H]([C@@H](C)O)NC(=O)[C@@H]2CCCN2C(=O)[C@@H]2CCCN2C1=O [3BP-4246, N4Ac-Glu(AGLU)-Ttds-Nle-[Cys-(3MeBn)-Pro-Pro-Thr-Gln-Phe-Cys]-OH] ({X24-Suc}-[Nle]CPPTEFC-OH; linker 2-8 via mXylylene)",,,,10 to 79.4,10 to 79.4,< 10
"CCCCCC(=O)N[C@H]1CSCc2cc(CSCCNC(=O)CN3CCN(CC(=O)O)CCN(CC(=O)O)CCN(CC(=O)O)CC3)cc(c2)CSC[C@@H](C(=O)O)NC(=O)[C@H](Cc2ccccc2)NC(=O)[C@H](CCC(=O)O)NC(=O)[C@H]([C@@H](C)O)NC(=O)[C@@H]2CCCN2C(=O)[C@@H]2CCCN2C1=O [3BP-4250, Hex-[Cys-(tMeBn(DOTA-AET))-Pro-Pro-Thr-Glu-Phe-Cys]-OH] (Hexanoyl-CPPTEFC-OH; linker 1-7 via TBMB(SCH2CH2NH-DOTA))",,,,10 to 79.4,< 10,< 10
"CCCCCC(=O)N[C@H]1CSCc2cc(CSCCNC(=O)COCCOCCNC(=O)CC[C@H](C(=O)O)N3CCN(CC(=O)O)CCN(CC(=O)O)CC3)cc(c2)CSC[C@@H](C(=O)O)NC(=O)[C@H](Cc2ccccc2)NC(=O)[C@H](CCC(N)=O)NC(=O)[C@H]([C@@H](C)O)NC(=O)[C@@H]2CCCN2C(=O)[C@@H]2CCCN2C1=O [3BP-4251, Hex-[Cys-(tMeBn(NODAGA-O2Oc-AET))-Pro-Pro-Thr-Gln-Phe-Cys]-OH]",,,,< 10,< 10,< 10
